Molecules are shown by their SMILES.

Chain of 5-hydroxytryptamine receptor 6 (P50406 whole entry): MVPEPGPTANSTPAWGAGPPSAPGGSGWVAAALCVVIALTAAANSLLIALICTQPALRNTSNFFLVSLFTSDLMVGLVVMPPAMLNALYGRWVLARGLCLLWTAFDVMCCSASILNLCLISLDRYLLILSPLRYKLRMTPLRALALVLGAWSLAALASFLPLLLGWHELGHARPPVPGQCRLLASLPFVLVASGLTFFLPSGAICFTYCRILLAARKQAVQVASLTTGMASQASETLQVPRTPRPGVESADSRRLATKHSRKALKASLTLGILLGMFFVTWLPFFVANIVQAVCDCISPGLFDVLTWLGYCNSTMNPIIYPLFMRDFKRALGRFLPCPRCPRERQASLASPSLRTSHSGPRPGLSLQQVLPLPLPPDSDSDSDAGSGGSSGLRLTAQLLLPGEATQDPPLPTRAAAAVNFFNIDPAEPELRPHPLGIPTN
Chain of Beta-1 adrenergic receptor (P08588 whole entry): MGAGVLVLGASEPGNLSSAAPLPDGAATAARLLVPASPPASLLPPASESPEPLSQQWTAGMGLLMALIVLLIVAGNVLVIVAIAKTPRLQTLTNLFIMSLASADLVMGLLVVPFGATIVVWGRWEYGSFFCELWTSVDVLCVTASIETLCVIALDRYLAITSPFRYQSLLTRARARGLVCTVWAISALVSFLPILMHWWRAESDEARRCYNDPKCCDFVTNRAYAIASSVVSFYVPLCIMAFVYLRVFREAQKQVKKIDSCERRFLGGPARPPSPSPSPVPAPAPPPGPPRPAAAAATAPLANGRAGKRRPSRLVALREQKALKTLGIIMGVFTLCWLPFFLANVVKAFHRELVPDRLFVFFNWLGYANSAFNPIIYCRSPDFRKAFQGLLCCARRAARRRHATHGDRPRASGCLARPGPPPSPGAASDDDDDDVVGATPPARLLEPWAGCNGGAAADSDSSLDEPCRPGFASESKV
Chain of Sigma non-opioid intracellular receptor 1 (Q99720 whole entry): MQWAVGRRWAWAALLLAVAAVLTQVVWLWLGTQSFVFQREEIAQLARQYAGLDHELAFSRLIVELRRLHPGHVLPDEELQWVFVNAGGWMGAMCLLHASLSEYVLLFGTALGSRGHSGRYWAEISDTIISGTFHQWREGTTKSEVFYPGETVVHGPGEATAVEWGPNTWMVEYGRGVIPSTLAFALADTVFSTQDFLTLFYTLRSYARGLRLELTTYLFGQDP

Tested on in the first test: not listed separately
As to the kind of experiment: DRUGMATRIX: GABAA, Muscimol, Central radioligand binding (ligand: [3H] Muscimol). Type of test: cell membranes, Rattus norvegicus, Wistar, Brain, Membrane. The following applies: Not Active = under 50% inhibition at 10 µM.
Turning to `CC(=O)S[C@@H]1CC2=CC(=O)CC[C@]2(C)[C@H]2CC[C@@]3(C)[C@@H](CC[C@@]34CCC(=O)O4)[C@H]12` [SPIRONOLACTONE], the IC50 entry is “Not Active” and the Ki result is recorded as “Not Active”.

A further test concerns the target Beta-1 adrenergic receptor (Homo sapiens, UniProt P08588). As to the kind of experiment: DRUGMATRIX: Adrenergic beta1 radioligand binding (ligand: [125I] Cyanopindolol). It counts as cell membranes, CHO-K1, Membrane. The following applies: cho-k1; Not Active = under 50% inhibition at 10 µM.
On to `CC(=O)S[C@@H]1CC2=CC(=O)CC[C@]2(C)[C@H]2CC[C@@]3(C)[C@@H](CC[C@@]34CCC(=O)O4)[C@H]12` [SPIRONOLACTONE], for which the IC50 entry is “Not Active”.

The target in a further test is Melanocortin receptor 4 (Homo sapiens, UniProt P32245). Type of test: cell membranes, Membrane. As to conditions: hek293. Also: in other assays of this panel Not Active means under 50% inhibition at 10 µM.
Chain of Melanocortin receptor 4 (P32245 whole entry): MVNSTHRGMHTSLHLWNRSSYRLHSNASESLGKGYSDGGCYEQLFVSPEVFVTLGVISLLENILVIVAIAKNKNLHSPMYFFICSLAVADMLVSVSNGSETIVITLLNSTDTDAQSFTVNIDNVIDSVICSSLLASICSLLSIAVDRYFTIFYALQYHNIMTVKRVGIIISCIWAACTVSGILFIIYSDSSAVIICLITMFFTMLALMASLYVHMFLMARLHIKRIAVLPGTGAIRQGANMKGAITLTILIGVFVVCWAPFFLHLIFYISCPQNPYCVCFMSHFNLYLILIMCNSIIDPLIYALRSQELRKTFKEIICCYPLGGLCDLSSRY
For `CC(=O)S[C@@H]1CC2=CC(=O)CC[C@]2(C)[C@H]2CC[C@@]3(C)[C@@H](CC[C@@]34CCC(=O)O4)[C@H]12` [SPIRONOLACTONE], the IC50 result is recorded as “Not Active”.

A further test addresses T1, 5-hydroxytryptamine receptor 2C (Homo sapiens, UniProt P28335).
T1 sequence (P28335 whole entry): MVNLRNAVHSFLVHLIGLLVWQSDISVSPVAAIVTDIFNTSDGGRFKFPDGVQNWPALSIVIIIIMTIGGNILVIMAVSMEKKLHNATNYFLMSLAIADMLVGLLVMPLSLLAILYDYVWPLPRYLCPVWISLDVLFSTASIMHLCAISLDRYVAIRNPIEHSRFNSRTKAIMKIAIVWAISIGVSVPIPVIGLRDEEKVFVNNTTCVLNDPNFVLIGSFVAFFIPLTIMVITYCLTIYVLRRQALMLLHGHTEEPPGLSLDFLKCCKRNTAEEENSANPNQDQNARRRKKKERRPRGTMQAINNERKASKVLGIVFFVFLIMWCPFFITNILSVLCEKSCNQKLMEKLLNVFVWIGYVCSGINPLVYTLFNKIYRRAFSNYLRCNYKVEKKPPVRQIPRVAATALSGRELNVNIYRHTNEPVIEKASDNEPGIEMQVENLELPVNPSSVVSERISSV
As to the kind of experiment: DRUGMATRIX: Serotonin (5-Hydroxytryptamine) 5-HT2C radioligand binding (ligand: [3H] Mesulergine). Type of test: cell membranes, CHO-K1, Membrane. The following applies: cho-k1; Not Active = under 50% inhibition at 10 µM.
In the case of `CC(=O)S[C@@H]1CC2=CC(=O)CC[C@]2(C)[C@H]2CC[C@@]3(C)[C@@H](CC[C@@]34CCC(=O)O4)[C@H]12` [SPIRONOLACTONE], the IC50 result is “Not Active”.

The target of a further test is Mu-type opioid receptor (Homo sapiens, UniProt P35372). As to the kind of experiment: DRUGMATRIX: Opiate mu (OP3, MOP) radioligand binding (ligand: [3H] Diprenorphine). Type of test: cell membranes, CHO-K1, Membrane. The following applies: cho-k1; Not Active = under 50% inhibition at 10 µM.
Chain of Mu-type opioid receptor (P35372 whole entry): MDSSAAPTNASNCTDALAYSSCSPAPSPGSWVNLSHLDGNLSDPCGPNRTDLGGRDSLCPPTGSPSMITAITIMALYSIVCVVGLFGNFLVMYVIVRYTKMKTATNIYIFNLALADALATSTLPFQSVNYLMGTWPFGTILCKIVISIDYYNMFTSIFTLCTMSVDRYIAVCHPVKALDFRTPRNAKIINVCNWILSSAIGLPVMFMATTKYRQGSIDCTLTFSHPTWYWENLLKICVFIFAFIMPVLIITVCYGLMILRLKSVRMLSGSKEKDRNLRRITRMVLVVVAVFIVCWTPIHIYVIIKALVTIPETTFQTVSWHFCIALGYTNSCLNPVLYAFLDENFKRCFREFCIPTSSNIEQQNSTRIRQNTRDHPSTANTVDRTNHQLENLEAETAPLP
As to `CC(=O)S[C@@H]1CC2=CC(=O)CC[C@]2(C)[C@H]2CC[C@@]3(C)[C@@H](CC[C@@]34CCC(=O)O4)[C@H]12` [SPIRONOLACTONE], the IC50 result is “Not Active”.

Tested on in the next test: not listed separately
As to the kind of experiment: DRUGMATRIX: Nicotinic Acetylcholine radioligand binding (ligand: [125I] Epibatidine). It counts as cell membranes, Membrane. As to conditions: imr-32; Not Active = under 50% inhibition at 10 µM.
For the molecule `CC(=O)S[C@@H]1CC2=CC(=O)CC[C@]2(C)[C@H]2CC[C@@]3(C)[C@@H](CC[C@@]34CCC(=O)O4)[C@H]12` [SPIRONOLACTONE], the IC50 entry is recorded as “Not Active” and the Ki entry is listed as “Not Active”.

A further test deals with T2, Alpha-1B adrenergic receptor (Rattus norvegicus, UniProt P15823).
T2 sequence (P15823 whole entry): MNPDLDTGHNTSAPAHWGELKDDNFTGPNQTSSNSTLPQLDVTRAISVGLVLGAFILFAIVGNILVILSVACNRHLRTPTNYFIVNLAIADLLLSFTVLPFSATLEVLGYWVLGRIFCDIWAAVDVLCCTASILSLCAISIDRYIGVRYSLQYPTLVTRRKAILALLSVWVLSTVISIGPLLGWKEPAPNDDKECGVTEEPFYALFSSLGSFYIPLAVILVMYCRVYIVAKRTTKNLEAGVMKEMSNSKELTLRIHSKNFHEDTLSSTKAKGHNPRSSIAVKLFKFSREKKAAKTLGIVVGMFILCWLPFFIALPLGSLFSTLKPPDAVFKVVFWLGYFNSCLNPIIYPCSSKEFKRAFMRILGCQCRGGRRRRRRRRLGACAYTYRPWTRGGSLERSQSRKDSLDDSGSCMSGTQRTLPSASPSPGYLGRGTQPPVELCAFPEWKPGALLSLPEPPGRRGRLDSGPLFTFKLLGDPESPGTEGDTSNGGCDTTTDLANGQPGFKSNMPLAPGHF
As to the kind of experiment: DRUGMATRIX: Alpha-1B adrenergic receptor radioligand binding (ligand: prazosin). As to conditions: Not Active = under 50% inhibition at 10 µM. Type of test: cell membranes, Wistar, Liver, Membrane.
`CC(=O)S[C@@H]1CC2=CC(=O)CC[C@]2(C)[C@H]2CC[C@@]3(C)[C@@H](CC[C@@]34CCC(=O)O4)[C@H]12` [SPIRONOLACTONE]: the IC50 entry is “Not Active”.

Tested on in another test: not listed separately
As to the kind of experiment: DRUGMATRIX: Calcium Channel Type L, Benzothiazepine radioligand binding (ligand: [3H] Diltiazem). It counts as cell membranes, Rattus norvegicus, Wistar, Brain, Membrane. As to conditions: Not Active = under 50% inhibition at 10 µM.
For the molecule `CC(=O)S[C@@H]1CC2=CC(=O)CC[C@]2(C)[C@H]2CC[C@@]3(C)[C@@H](CC[C@@]34CCC(=O)O4)[C@H]12` [SPIRONOLACTONE], the IC50 result was “Not Active” and the Ki entry is listed as “Not Active”.

Tested on in the next test: not listed separately
As to the kind of experiment: DRUGMATRIX: Glutamate, Kainate radioligand binding (ligand: [3H] Kainic acid). Type of test: cell membranes, Rattus norvegicus, Wistar, Brain, Membrane. The following applies: Not Active = under 50% inhibition at 10 µM.
`CC(=O)S[C@@H]1CC2=CC(=O)CC[C@]2(C)[C@H]2CC[C@@]3(C)[C@@H](CC[C@@]34CCC(=O)O4)[C@H]12` [SPIRONOLACTONE]: the IC50 result was “Not Active” and the Ki result is listed as “Not Active”.

The target of the next test is T3, Endothelin-1 receptor (Homo sapiens, UniProt P25101). Also: in other assays of this panel Not Active means under 50% inhibition at 10 µM.
T3 sequence (P25101 whole entry): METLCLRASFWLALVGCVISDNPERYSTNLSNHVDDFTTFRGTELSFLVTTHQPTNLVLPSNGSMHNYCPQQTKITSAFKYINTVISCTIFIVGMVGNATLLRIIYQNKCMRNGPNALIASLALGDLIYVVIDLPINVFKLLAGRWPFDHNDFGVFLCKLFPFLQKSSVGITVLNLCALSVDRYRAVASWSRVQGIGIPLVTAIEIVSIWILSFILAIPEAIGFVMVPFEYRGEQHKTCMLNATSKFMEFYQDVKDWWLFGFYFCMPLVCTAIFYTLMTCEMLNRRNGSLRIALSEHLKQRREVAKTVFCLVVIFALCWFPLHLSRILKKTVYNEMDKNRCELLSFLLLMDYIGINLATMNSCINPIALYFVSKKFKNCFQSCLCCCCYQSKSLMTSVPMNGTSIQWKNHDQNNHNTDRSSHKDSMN
It counts as cell membranes, Membrane. The following applies: cho-k1.
For `CC(=O)S[C@@H]1CC2=CC(=O)CC[C@]2(C)[C@H]2CC[C@@]3(C)[C@@H](CC[C@@]34CCC(=O)O4)[C@H]12` [SPIRONOLACTONE], the IC50 result is listed as “Not Active”.

Tested on in a further test: not listed separately
As to the kind of experiment: DRUGMATRIX: Calcium Channel Type L, Phenylalkylamine radioligand binding (ligand: [3H] (-)-Desmethoxyverapamil (D-888)). It counts as cell membranes, Rattus norvegicus, Wistar, Brain, Membrane. The following applies: Not Active = under 50% inhibition at 10 µM.
As for `CC(=O)S[C@@H]1CC2=CC(=O)CC[C@]2(C)[C@H]2CC[C@@]3(C)[C@@H](CC[C@@]34CCC(=O)O4)[C@H]12` [SPIRONOLACTONE], the IC50 entry is “Not Active” and the Ki result is “Not Active”.

Tested on in another test: not listed separately
As to the kind of experiment: DRUGMATRIX: Serotonin (5-Hydroxytryptamine) 5-HT3 radioligand binding (ligand: [3H] GR-65630). It counts as cell membranes, Membrane. The following applies: hek293; Not Active = under 50% inhibition at 10 µM.
For `CC(=O)S[C@@H]1CC2=CC(=O)CC[C@]2(C)[C@H]2CC[C@@]3(C)[C@@H](CC[C@@]34CCC(=O)O4)[C@H]12` [SPIRONOLACTONE], the IC50 entry is listed as “Not Active” and the Ki result was “Not Active”.

Tested on in a further test: not listed separately
As to the kind of experiment: DRUGMATRIX: ATPase, Na+/K+ enzyme inhibition (substrate: ATP). Type of test: tissue-based, Sus scrofa, Heart. The following applies: Not Active = under 50% inhibition at 10 µM.
On to `CC(=O)S[C@@H]1CC2=CC(=O)CC[C@]2(C)[C@H]2CC[C@@]3(C)[C@@H](CC[C@@]34CCC(=O)O4)[C@H]12` [SPIRONOLACTONE], for which the IC50 result is on record as “Not Active” and the Ki result is “Not Active”.

The next test concerns the target Sigma non-opioid intracellular receptor 1 (Homo sapiens, UniProt Q99720). As to the kind of experiment: DRUGMATRIX: Sigma1 radioligand binding (ligand: [3H] Haloperidol). Type of test: cell membranes, Jurkat, Membrane. The following applies: jurkat; Not Active = under 50% inhibition at 10 µM.
Regarding `CC(=O)S[C@@H]1CC2=CC(=O)CC[C@]2(C)[C@H]2CC[C@@]3(C)[C@@H](CC[C@@]34CCC(=O)O4)[C@H]12` [SPIRONOLACTONE], the IC50 entry was “Not Active”.

In a further test the target is Kappa-type opioid receptor (Homo sapiens, UniProt P41145). As to the kind of experiment: DRUGMATRIX: Opiate kappa (OP2, KOP) radioligand binding (ligand: [3H] Diprenorphine). As to conditions: hek293; Not Active = under 50% inhibition at 10 µM. Type of test: cell membranes, HEK293, Membrane.
Chain of Kappa-type opioid receptor (P41145 whole entry): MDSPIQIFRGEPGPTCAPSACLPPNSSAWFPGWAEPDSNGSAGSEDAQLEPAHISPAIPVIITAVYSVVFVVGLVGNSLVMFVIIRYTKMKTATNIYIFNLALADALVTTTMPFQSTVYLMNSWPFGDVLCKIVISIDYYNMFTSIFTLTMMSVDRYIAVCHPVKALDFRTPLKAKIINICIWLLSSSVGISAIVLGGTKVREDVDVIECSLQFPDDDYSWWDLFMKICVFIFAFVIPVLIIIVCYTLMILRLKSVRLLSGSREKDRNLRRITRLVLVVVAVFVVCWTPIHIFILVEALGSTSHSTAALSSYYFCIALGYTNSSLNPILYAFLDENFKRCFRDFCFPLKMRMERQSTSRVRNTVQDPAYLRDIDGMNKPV
`CC(=O)S[C@@H]1CC2=CC(=O)CC[C@]2(C)[C@H]2CC[C@@]3(C)[C@@H](CC[C@@]34CCC(=O)O4)[C@H]12` [SPIRONOLACTONE]: the IC50 entry is given as “Not Active”.

A further test has as its target 5-hydroxytryptamine receptor 6 (Homo sapiens, UniProt P50406). Type of test: cell membranes, HeLa, Membrane. The following applies: hela. Also: in other assays of this panel Not Active means under 50% inhibition at 10 µM.
As for `CC(=O)S[C@@H]1CC2=CC(=O)CC[C@]2(C)[C@H]2CC[C@@]3(C)[C@@H](CC[C@@]34CCC(=O)O4)[C@H]12` [SPIRONOLACTONE], the IC50 entry is on record as “Not Active”.

In another test the target is T4, Neuropeptide Y receptor type 2 (Homo sapiens, UniProt P49146). Also: in other assays of this panel Not Active means under 50% inhibition at 10 µM.
T4 sequence (P49146 whole entry): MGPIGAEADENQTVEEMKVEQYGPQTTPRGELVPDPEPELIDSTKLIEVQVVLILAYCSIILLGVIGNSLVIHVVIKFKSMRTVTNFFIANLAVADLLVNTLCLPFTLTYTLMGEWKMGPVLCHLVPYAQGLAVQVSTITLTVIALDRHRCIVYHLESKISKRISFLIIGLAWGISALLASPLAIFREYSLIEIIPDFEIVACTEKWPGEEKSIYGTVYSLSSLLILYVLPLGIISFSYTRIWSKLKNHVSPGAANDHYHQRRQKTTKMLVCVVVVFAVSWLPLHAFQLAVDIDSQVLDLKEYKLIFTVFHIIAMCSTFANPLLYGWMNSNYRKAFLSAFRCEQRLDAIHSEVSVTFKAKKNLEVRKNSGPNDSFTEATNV
It counts as cell membranes, Membrane. As to conditions: kan-ts.
Take `CC(=O)S[C@@H]1CC2=CC(=O)CC[C@]2(C)[C@H]2CC[C@@]3(C)[C@@H](CC[C@@]34CCC(=O)O4)[C@H]12` [SPIRONOLACTONE]: the IC50 entry is on record as “Not Active”.

(Values after ChEMBL document CHEMBL1909046, “DrugMatrix in vitro pharmacology data”.)
